Experimental data reported in patent publication US7528138B2, “Pyrazolo[1,5-a]pyrimidines useful as inhibitors of protein kinases” (Vertex Pharmaceuticals Incorporated, priority 2004, dated 2009).

Tests used:
[1] = target: T1, Itk (Homo sapiens, UniProt Q08881); test: ITK Inhibition Assay (Radiometric), radioactive-phosphate incorporation; type: biochemical; conditions: enzyme inhibition data (Ki), Table 11; radiometric or UV assay not stated
T1 sequence (Q08881 1-620): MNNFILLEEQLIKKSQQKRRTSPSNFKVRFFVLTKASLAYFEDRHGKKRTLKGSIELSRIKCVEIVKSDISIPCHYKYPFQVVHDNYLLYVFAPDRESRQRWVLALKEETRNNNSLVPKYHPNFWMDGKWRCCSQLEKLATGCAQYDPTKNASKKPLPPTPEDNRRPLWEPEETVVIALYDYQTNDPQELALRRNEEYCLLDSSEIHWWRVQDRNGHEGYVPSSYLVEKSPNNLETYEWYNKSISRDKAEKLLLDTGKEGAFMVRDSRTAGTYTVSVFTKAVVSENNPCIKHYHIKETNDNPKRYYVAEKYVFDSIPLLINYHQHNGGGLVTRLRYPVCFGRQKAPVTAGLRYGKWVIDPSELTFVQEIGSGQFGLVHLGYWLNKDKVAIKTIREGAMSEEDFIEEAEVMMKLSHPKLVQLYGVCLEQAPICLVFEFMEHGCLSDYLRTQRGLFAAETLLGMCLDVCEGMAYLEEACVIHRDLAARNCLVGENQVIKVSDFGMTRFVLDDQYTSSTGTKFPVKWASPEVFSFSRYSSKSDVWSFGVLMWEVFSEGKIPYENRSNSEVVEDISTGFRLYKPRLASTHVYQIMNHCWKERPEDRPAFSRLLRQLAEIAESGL
In short: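 Radiometric 33P incorporation into SAM68 peptide (D332-443) with filter capture and scintillation counting; 10 min pre-incubation then 10 min reaction at 25° C. IC50 format: 30 nM Itk, 15 μM ATP, 2 μM peptide, HEPES pH 7.5. Ki(app) format: 50 nM Itk, 7.5 μM ATP, 3 μM peptide, MOPS pH 7.0.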

[2] = target: T2, JAK3 (Homo sapiens, UniProt P52333); test: JAK3 Inhibition Assay, 33P incorporation; type: biochemical; conditions: enzyme inhibition data (Ki), Table 11
T2 sequence (P52333 1-1124): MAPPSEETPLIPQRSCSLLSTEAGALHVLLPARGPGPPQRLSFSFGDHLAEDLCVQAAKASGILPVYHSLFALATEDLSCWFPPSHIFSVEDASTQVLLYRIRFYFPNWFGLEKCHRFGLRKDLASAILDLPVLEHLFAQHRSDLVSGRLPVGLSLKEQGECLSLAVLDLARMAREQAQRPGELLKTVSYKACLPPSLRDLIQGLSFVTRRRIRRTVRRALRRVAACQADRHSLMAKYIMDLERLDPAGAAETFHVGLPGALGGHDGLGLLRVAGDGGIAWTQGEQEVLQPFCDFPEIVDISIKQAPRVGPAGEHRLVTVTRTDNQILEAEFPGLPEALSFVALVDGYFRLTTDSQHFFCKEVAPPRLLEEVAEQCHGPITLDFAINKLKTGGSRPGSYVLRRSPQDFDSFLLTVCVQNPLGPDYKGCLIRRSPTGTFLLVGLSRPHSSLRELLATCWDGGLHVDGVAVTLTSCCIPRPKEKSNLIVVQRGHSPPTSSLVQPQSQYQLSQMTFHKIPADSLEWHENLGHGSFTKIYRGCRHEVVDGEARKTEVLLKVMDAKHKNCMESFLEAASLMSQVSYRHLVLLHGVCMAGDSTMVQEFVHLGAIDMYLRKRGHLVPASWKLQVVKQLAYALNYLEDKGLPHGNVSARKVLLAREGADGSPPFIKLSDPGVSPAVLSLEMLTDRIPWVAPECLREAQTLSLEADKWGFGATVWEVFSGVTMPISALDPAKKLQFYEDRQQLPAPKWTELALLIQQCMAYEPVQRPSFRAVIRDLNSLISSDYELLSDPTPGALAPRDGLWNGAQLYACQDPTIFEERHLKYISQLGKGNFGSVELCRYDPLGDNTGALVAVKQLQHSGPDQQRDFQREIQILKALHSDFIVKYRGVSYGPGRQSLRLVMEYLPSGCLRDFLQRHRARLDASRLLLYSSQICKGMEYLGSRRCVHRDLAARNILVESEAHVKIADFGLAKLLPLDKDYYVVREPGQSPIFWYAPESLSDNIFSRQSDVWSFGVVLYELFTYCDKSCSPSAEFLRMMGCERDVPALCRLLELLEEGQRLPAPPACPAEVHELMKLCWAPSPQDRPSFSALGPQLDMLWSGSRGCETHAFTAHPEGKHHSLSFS
In short: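 Recombinant JAK3 at 1 nM in HEPES pH 7.4 buffer with 10 mM MgCl2, 1 mM DTT and 0.01% BSA. Substrates were 5 μM ATP (200 uCi/μmole) and 1 μM poly(Glu)4Tyr, reacted 20 min at 25 °C. Stopped with TCA, and 33P incorporation counted on glass fiber filters.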

| Compound | Ki [1] [nM] | Ki [2] [nM] |
| --- | --- | --- |
| COCCNc1ccc(-c2cnc3c(-c4ccccn4)c(N)nn3c2)cn1 [Compound V-156] | 500 to 5000 | > 5000 |
| CN(C)Cc1cccc(-c2cnc3c(-c4ccccn4)c(N)nn3c2)c1 [Compound V-215] | < 500 | > 5000 |
| COC(=O)C1CCCN1C(=O)c1cccc(-c2cnc3c(-c4ccccn4)c(N)nn3c2)n1 (stereo not drawn) [Compound V-139] | 500 to 5000 | > 5000 |
| Nc1nn2cc(-c3ccc(C(=O)NC4CCCO4)cn3)cnc2c1-c1ccccn1 (stereo not drawn) [Compound V-96] | 500 to 5000 | > 5000 |
| CC(C)CN(C)c1cc(-c2c(N)nn3cc(-c4ccncc4)cnc23)ncn1 [Compound V-243] | < 500 | < 500 |
| CNCCN(C)C(=O)c1cccc(-c2cnc3c(-c4ccccn4)c(N)nn3c2)c1 [Compound V-189] | < 500 | 500 to 5000 |
| CNCCCN(C)C(=O)c1cccc(-c2cnc3c(-c4ccccn4)c(N)nn3c2)c1 [Compound V-190] | < 500 | 500 to 5000 |
| NC1NN2C=C(c3cccc(CN4CCCNCC4)c3)C=NC2=C1c1ccccn1 (stereo not drawn) [Compound V-228] | < 500 | > 5000 |
| Nc1nn2cc(-c3ccc(CNC4CCNCC4)cc3)cnc2c1-c1ccccn1 [Compound V-232] | < 500 | > 5000 |
| CCN(CC)C(=O)c1cccc(-c2cnc3c(-c4ccccn4)c(N)nn3c2)n1 [Compound V-127] | 500 to 5000 | > 5000 |
| Nc1nn2cc(-c3cccc(CN4CCOCC4)c3)cnc2c1-c1ccccn1 [Compound V-225] | 500 to 5000 | > 5000 |
| Nc1nn2cc(-c3cccc(CO)c3)cnc2c1-c1ccccn1 [Compound V-221] | 500 to 5000 | 500 to 5000 |
| CN(CCC#N)C(=O)c1cccc(-c2cnc3c(-c4ccccn4)c(N)nn3c2)n1 [Compound V-114] | 500 to 5000 | > 5000 |
| C#CCN(C)C(=O)c1cccc(-c2cnc3c(-c4ccccn4)c(N)nn3c2)n1 [Compound V-106] | 500 to 5000 | > 5000 |
| Cc1ccc(-c2c(N)nn3cc(-c4ccncc4)cnc23)nc1 [Compound V-132] | 500 to 5000 | > 5000 |
| NC1CCN(Cc2cccc(C3=CN4NC(N)C(c5ccccn5)=C4N=C3)c2)CC1 (stereo not drawn) [Compound V-229] | < 500 | > 5000 |
| NC1NN2C=C(c3cccc(CN4CC[C@@H](N)C4)c3)C=NC2=C1c1ccccn1 (stereo partly drawn) [Compound V-226] | < 500 | > 5000 |
| Nc1nn2cc(-c3ccncc3)cnc2c1-c1cc(NC2CCCCC2)ncn1 [Compound V-183] | < 500 | 500 to 5000 |
| CC(C)CN(C)C(=O)c1ccc(-c2cnc3c(-c4ccccn4)c(N)nn3c2)nc1 [Compound V-97] | < 500 | 500 to 5000 |
| CN(C)Cc1ccc(-c2cnc3c(-c4ccccn4)c(N)nn3c2)cc1 [Compound V-214] | < 500 | 500 to 5000 |
| Nc1nn2cc(-c3ccc(CN4CC[C@@H](N)C4)cc3)cnc2c1-c1ccccn1 [Compound V-231] | < 500 | 500 to 5000 |
| Nc1nn2cc(-c3ccncc3)cnc2c1-c1cc(Nc2ccccc2)ncn1 [Compound V-241] | < 500 | < 500 |
| Cc1cccnc1-c1c(N)nn2cc(-c3ccncc3)cnc12 [Compound V-135] | 500 to 5000 | > 5000 |
| Cc1ccnc(-c2c(N)nn3cc(-c4ccncc4)cnc23)c1 [Compound V-133] | 500 to 5000 | 500 to 5000 |

| Compound | Ki [1] [nM] | Ki [2] [nM] |
| --- | --- | --- |
| Nc1nn2cc(-c3cccc(C(=O)N4CCCC4CO)n3)cnc2c1-c1ccccn1 (stereo not drawn) [Compound V-112] | 500 to 5000 | > 5000 |
| CS(=O)(=O)Nc1cccc(-c2cnc3c(-c4ccccn4)c(N)nn3c2)c1 [Compound V-18] | < 500 | > 5000 |
| Cc1cccc(-c2c(N)nn3cc(-c4ccncc4)cnc23)n1 [Compound V-178] | < 500 | > 5000 |
| COc1ccc(-c2cn3nc(N)c(-c4ccccn4)c3nc2C)cc1 [Compound V-216] | 500 to 5000 | > 5000 |
| Nc1nn2cc(-c3ccc(CN4CCC(N)CC4)cc3)cnc2c1-c1ccccn1 [Compound V-234] | < 500 | 500 to 5000 |
| CCN1CCN(C(=O)c2cccc(-c3cnc4c(-c5ccccn5)c(N)nn4c3)n2)CC1 [Compound V-102] | 500 to 5000 | > 5000 |
| CCN(CCC#N)C(=O)c1cccc(-c2cnc3c(-c4ccccn4)c(N)nn3c2)n1 [Compound V-116] | 500 to 5000 | > 5000 |
| NCc1ccc(-c2cnc3c(-c4ccccn4)c(N)nn3c2)cc1 [Compound V-195] | < 500 | 500 to 5000 |
| Nc1nn2cc(-c3cccc(N4CCNCC4)c3)cnc2c1-c1ccccn1 [Compound V-222] | < 500 | 500 to 5000 |
| Nc1nn2cc(-c3cccc(C(=O)N4CCC[C@@H]4CN4CCCC4)n3)cnc2c1-c1ccccn1 [Compound V-175] | 500 to 5000 | 500 to 5000 |
| Nc1nn2cc(-c3ccc(N4CCC[C@H]4CN4CCCC4)nc3)cnc2c1-c1ccccn1 [Compound V-152] | < 500 | > 5000 |
| CN(CCCN)C(=O)c1ccc(-c2cnc3c(-c4ccccn4)c(N)nn3c2)nc1 [Compound V-130] | < 500 | > 5000 |
| CCCN(CC)c1cc(-c2c(N)nn3cc(-c4ccncc4)cnc23)ncn1 [Compound V-244] | < 500 | < 500 |
| CNCCCN(C)C(=O)c1ccc(-c2cnc3c(-c4ccccn4)c(N)nn3c2)cc1 [Compound V-191] | < 500 | 500 to 5000 |
| CNC(=O)c1cnc2c(-c3ccccn3)c(N)nn2c1 [Compound V-204] | 500 to 5000 | > 5000 |
| CC(C)CNc1cc(-c2c(N)nn3cc(-c4ccncc4)cnc23)ncn1 [Compound V-185] | < 500 | < 500 |
| CC(C)N1CCN(c2ccc(-c3cnc4c(-c5ccccn5)c(N)nn4c3)cn2)CC1 [Compound V-146] | < 500 | > 5000 |
| CC(C)(O)C#Cc1cnc2c(-c3ccccn3)c(N)nn2c1 [Compound V-237] | < 500 | 500 to 5000 |
| CCN(C)C(=O)c1cccc(-c2cnc3c(-c4ccccn4)c(N)nn3c2)n1 [Compound V-115] | 500 to 5000 | > 5000 |
| CC(C)Nc1cc(-c2c(N)nn3cc(-c4ccncc4)cnc23)ncn1 [Compound V-182] | < 500 | < 500 |
| Nc1nn2cc(-c3ccc(N4CCC(N)CC4)nc3)cnc2c1-c1ccccn1 [Compound V-165] | < 500 | > 5000 |
| CCN(CC)C(=O)c1ccc(-c2cnc3c(-c4ccccn4)c(N)nn3c2)nc1 [Compound V-98] | < 500 | 500 to 5000 |
| CNCc1ccc(-c2cnc3c(-c4ccccn4)c(N)nn3c2)cc1 [Compound V-236] | < 500 | 500 to 5000 |
| CN1CCCN(c2ccc(-c3cnc4c(-c5ccccn5)c(N)nn4c3)cn2)CC1 [Compound V-160] | 500 to 5000 | > 5000 |
